The structures appear in SMILES notation. Numbered stars: 1 amine (or outer) side, 2 acyl side, 3 side chain; on linkers, the order of the positions; unused ones are H or OH. Bridge positions count the residues as written; N and C are the ends. Square brackets hold non-standard residues; d marks the D form. Peptide text beside a SMILES is read from it. I, II: the chains in the order shown. CO(CH2CH2O)5CH2CH2CO = O=C(CCOCCOCCOCCOCCOCCC(=O)[*:2])[*:1]; X1 = O=C(C=NOCCCCCCOc1cc(C[*:2])cc(C[*:3])c1)[*:1]; X5 = O=C(CCCCCCOc1cc(C[*:2])cc(C[*:3])c1)[*:1]; tBuAla = CC(C)(C)C[C@H](N)C(=O)O; Met(O) = CS(=O)CC[C@H](N)C(=O)O; Cba = N[C@@H](CC1CCC1)C(=O)O; hSer = N[C@@H](CCO)C(=O)O; Nle = CCCC[C@H](N)C(=O)O

The target of the first test is T1, rh-integrin α4β7/LPAM-1 (Homo sapiens, UniProt P13612+P26010).
T1 sequence (P13612 34-977 limits assumed): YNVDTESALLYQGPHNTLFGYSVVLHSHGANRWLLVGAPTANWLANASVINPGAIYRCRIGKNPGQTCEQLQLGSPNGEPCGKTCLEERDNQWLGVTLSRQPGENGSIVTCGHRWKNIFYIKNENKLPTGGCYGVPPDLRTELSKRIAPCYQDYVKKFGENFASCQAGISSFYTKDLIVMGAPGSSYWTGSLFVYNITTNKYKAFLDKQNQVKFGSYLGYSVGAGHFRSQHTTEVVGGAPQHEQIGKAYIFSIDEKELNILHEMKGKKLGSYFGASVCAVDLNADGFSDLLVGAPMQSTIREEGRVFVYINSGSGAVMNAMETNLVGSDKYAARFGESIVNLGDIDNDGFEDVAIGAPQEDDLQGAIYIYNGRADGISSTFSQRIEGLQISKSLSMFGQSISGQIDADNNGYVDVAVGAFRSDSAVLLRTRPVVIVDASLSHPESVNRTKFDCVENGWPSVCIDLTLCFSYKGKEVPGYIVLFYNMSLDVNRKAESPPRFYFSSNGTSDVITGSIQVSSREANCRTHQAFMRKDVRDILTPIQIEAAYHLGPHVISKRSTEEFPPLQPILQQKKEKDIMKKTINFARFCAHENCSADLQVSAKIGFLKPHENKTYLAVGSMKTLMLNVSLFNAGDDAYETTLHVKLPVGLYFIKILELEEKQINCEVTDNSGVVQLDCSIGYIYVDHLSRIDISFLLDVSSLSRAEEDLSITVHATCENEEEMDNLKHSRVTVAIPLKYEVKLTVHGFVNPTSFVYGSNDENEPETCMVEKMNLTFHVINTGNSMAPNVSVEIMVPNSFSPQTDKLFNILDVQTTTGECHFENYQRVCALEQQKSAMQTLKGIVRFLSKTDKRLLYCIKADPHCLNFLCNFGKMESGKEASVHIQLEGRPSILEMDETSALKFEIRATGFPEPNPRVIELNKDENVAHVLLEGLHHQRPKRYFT
T1 sequence (P26010 20-723 limits assumed): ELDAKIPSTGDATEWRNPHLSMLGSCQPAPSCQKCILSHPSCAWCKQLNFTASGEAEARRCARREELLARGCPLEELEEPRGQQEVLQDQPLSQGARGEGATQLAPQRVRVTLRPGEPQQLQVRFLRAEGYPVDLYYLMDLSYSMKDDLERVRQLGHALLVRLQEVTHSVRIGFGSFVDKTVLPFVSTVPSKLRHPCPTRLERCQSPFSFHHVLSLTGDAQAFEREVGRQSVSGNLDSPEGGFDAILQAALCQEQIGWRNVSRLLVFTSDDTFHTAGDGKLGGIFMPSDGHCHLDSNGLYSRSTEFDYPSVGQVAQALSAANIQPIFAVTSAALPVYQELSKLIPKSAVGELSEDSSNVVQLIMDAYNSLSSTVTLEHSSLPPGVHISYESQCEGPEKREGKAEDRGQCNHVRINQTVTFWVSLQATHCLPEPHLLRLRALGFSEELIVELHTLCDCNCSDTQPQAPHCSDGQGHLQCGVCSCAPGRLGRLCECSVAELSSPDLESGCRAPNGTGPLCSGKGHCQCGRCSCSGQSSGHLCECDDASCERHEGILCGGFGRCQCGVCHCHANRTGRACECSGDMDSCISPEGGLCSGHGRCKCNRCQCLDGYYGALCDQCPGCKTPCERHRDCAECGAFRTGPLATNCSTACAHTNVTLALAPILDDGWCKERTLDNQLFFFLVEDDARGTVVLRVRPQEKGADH
The experiment in a line: α4β7-MadCAM Competition ELISA (Example 4). It is filed as binding. The note with it: IC50, competition ELISA, 4 μg/mL α4β7 coated, MAdCAM and peptide mixture, 28° C. As for the experimental part: After washing with wash buffer, 200 μL assay buffer was added to each well and incubated for one hour at 28° C. After another wash with wash buffer, 100 μL of a MAdCAM and peptide mixture in assay buffer was added to each well and incubated for one hour at 28° C., followed by washing with wash buffer.
As for `C[C@@H](O)[C@@H]1NC(=O)[C@H](CCCCN)NC(=O)[C@H](CO)NC(=O)[C@H](CCC(N)=O)NC(=O)[C@H](Cc2c[nH]c3ccccc23)NC(=O)[C@@H]2CCCN2C(=O)[C@@H]2CSCc3cc(cc(c3)OCCCCCCON=CC(=O)N[C@@H](CC(=O)O)C(=O)N2)CSC[C@@H](C(=O)O)NC1=O` [SEQ ID NO: 95] (DCPWQSKTC-OH; linker N-2-9 via X1), the concentration for half-maximal inhibition (IC50) came out at 17.7 µM.

The same test, now with this note: competition ELISA, 4 μg/mL α4β7 coated, MAdCAM and peptide mixture, 28° C.; read-out: IC50.
On to `CCCC[C@@H]1NC(=O)[C@H](CO)NC(=O)[C@H](CCCNC(=N)N)NC(=O)[C@@H]2CSCC(=O)N[C@@H](CCCNC(=N)N)C(=O)N[C@@H](CSSC[C@@H](C(=O)N[C@@H](Cc3c[nH]c4ccccc34)C(=O)N[C@@H](CCC(N)=O)C(N)=O)NC(=O)[C@H]([C@@H](C)CC)NC(=O)[C@H](CC(=O)O)NC1=O)C(=O)N[C@@H](CO)C(=O)N[C@@H](CCCC)C(=O)N[C@@H](CC(=O)O)C(=O)N[C@@H]([C@@H](C)CC)C(=O)N2` [SEQ ID NO: 76] ({CH2CO}-RCS[Nle]DICRS[Nle]DICWQ-NH2; disulfide 2-13; thioether N-7), for which the half-maximal inhibitory concentration (IC50) came out at 263 µM.
For the compound `CSCC[C@@H]1NC(=O)[C@H]([C@@H](C)O)NC(=O)[C@H](C)NC(=O)CNC(=O)[C@@H]2CSCc3cc(cc(c3)OCCCCCCON=CC(=O)N[C@@H](Cc3ccccc3)C(=O)N2)CSC[C@@H](C(=O)O)NC(=O)[C@H](CCCCN)NC(=O)[C@H](CCCCN)NC1=O` [SEQ ID NO: 79] (FCGATMKKC-OH; linker N-2-9 via X1), the IC50 is 162 µM.
In the case of `CC[C@H](C)[C@@H]1NC(=O)[C@H](C)NC(=O)[C@H](CC[S+](C)[O-])NC(=O)[C@@H]2CCCN2C(=O)[C@@H]2CSCc3cc(cc(c3)OCCCCCCON=CC(=O)N[C@@H](CCC(N)=O)C(=O)N2)CSC[C@@H](C(=O)O)NC(=O)[C@H]([C@@H](C)O)NC(=O)[C@@H]2CCCN2C1=O` (some centres unmarked) [SEQ ID NO: 80] (QCP[Met(O)]AIPTC-OH; linker N-2-9 via X1), the half-maximal inhibitory concentration (IC50) is 152 µM.
Regarding `C[C@@H](O)[C@@H]1NC(=O)[C@H](CC(=O)O)NC(=O)[C@@H]2CCCN2C(=O)[C@H](Cc2ccc(O)cc2)NC(=O)[C@@H]2CSCc3cc(cc(c3)OCCCCCCON=CC(=O)N[C@@H](CC(N)=O)C(=O)N2)CSC[C@@H](C(=O)O)NC(=O)[C@H](Cc2c[nH]cn2)NC(=O)[C@H](Cc2ccc(O)cc2)NC1=O` [SEQ ID NO: 86] (NCYPDTYHC-OH; linker N-2-9 via X1), the IC50 is 79.3 µM.
For the compound `COCC[C@@H]1NC(=O)[C@@H]2CCCN2C(=O)[C@@H]2CSCc3cc(cc(c3)OCCCCCCC(=O)NCC(=O)N[C@@H](CCC(N)=O)C(=O)N2)CSC[C@@H](C(=O)O)NC(=O)[C@H](CCC(=O)O)NC(=O)[C@H](CCC(N)=O)NC(=O)[C@@H]2CCCN2C(=O)[C@H](CC(C)(C)C)NC(=O)[C@H](CC(=O)O)NC1=O` [SEQ ID NO: 89] (GQCP[hSer](Me)D[tBuAla]PQEC-OH; linker N-3-11 via X5; C-terminus assumed), the half-inhibitory concentration (IC50) came out at 55.9 µM.
Turning to `CCCC[C@@H]1NC(=O)[C@H](CO)NC(=O)[C@@H]2CSSC[C@@H](C(=O)N[C@@H](Cc3c[nH]c4ccccc34)C(=O)N[C@@H](CCC(N)=O)C(N)=O)NC(=O)[C@H](C(C)C)NC(=O)[C@H](CC(=O)O)NC(=O)[C@H](CC(C)C)NC(=O)[C@H](CO)NC(=O)[C@H](CCCNC(=N)N)NC(=O)[C@H](CSCC(=O)N[C@@H](CCCNC(=N)N)C(=O)N2)NC(=O)[C@H]([C@@H](C)CC)NC(=O)[C@H](CC(=O)O)NC1=O` [SEQ ID NO: 94] ({CH2CO}-RCS[Nle]DICRSLDVCWQ-NH2; disulfide 2-13; thioether N-7), the IC50 is 19.7 µM.
The same measure, in the same setting: to `CCCC[C@@H]1NC(=O)[C@H](CO)NC(=O)[C@H](CCCNC(=N)N)NC(=O)[C@@H]2CSCC(=O)N[C@@H](CCCNC(=N)N)C(=O)N[C@@H](CSSC[C@@H](C(=O)N[C@@H](Cc3c[nH]c4ccccc34)C(=O)N[C@@H](CCC(N)=O)C(N)=O)NC(=O)[C@H]([C@@H](C)CC)NC(=O)[C@H](CC(=O)O)NC1=O)C(=O)N[C@@H](CO)C(=O)N[C@@H](CC(=O)O)C(=O)N[C@@H]([C@@H](C)O)C(=O)N[C@@H](CC(C)C)C(=O)N2` [SEQ ID NO: 96] ({CH2CO}-RCSDTLCRS[Nle]DICWQ-NH2; disulfide 2-13; thioether N-7) belongs 15.9 µM; to `CC[C@H](C)[C@@H]1NC(=O)C=NOCCCCCCOc2cc3cc(c2)CSC[C@H](NC1=O)C(=O)N[C@@H](CCCNC(=N)N)C(=O)N[C@@H]([C@@H](C)O)C(=O)N[C@@H](CC(=O)O)C(=O)N[C@@H](C(C)C)C(=O)N1CCC[C@H]1C(=O)N[C@@H]([C@@H](C)CC)C(=O)N[C@@H](CC(=O)O)C(=O)N[C@H](C(=O)O)CSC3` [SEQ ID NO: 98] (ICRTDVPIDC-OH; linker N-2-10 via X1), 14.4 µM; to `CSCC[C@@H]1NC(=O)[C@@H]2CCCN2C(=O)[C@@H]2CSCc3cc(cc(c3)OCCCCCCON=CC(=O)N[C@@H](C)C(=O)N2)CSC[C@@H](C(=O)O)NC(=O)[C@H](CCC(=O)O)NC(=O)CNC(=O)[C@H](C)NC(=O)[C@H](C(C)C)NC(=O)[C@H](CC(=O)O)NC1=O` [SEQ ID NO: 101] (ACPMDVAGEC-OH; linker N-2-10 via X1), 5.98 µM.
For the compound `CC(C)(C)C[C@@H]1NC(=O)[C@H](CC(=O)O)NC(=O)[C@H](CC2CCC2)NC(=O)[C@@H]2CCCN2C(=O)[C@@H]2CSCc3cc(cc(c3)OCCCCCCON=CC(=O)N[C@@H](CCCNC(=N)N)C(=O)N2)CSC[C@@H](C(=O)O)NC(=O)[C@H](CCC(=O)O)NC(=O)[C@H](CCC(N)=O)NC(=O)[C@H](Cc2c[nH]c3ccccc23)NC1=O` [SEQ ID NO: 105] (RCP[Cba]D[tBuAla]WQEC-OH; linker N-2-10 via X1), the IC50 was 3.89 µM.
Still for that read-out and setting: the figure for `CC[C@H](C)[C@@H]1NC(=O)[C@H](CC(=O)O)NC(=O)[C@H](CCSC)NC(=O)[C@@H]2CCCN2C(=O)[C@@H](NC(=O)[C@H](CCCNC(=N)N)NC(=O)[C@H](CO)NC(C)=O)CSSC[C@@H](C(=O)N[C@@H](CCCCNC(=O)CCOCCOCCOCCOCCOCCC(=O)NCCCC[C@H](NC(=O)[C@@H]2CSSC[C@H](NC(=O)[C@H](CCCNC(=N)N)NC(=O)[C@H](CO)NC(C)=O)C(=O)N3CCC[C@H]3C(=O)N[C@@H](CCSC)C(=O)N[C@@H](CC(=O)O)C(=O)N[C@@H]([C@@H](C)CC)C(=O)N[C@@H](C)C(=O)NCC(=O)N[C@@H](CCC(=O)O)C(=O)N2)C(N)=O)C(N)=O)NC(=O)[C@H](CCC(=O)O)NC(=O)CNC(=O)[C@H](C)NC1=O` [SEQ ID NO: 109] (I: Ac-SRCPMDIAGECK-NH2 / II: Ac-SRCPMDIAGECK-NH2; disulfide I:3-I:11, II:3-II:11; linker I:12-II:12 via CO(CH2CH2O)5CH2CH2CO) is 1.73 µM; for `CC[C@H](C)[C@@H]1NC(=O)[C@H](CC(=O)O)NC(=O)[C@H](CCSC)NC(=O)[C@@H]2CCCN2C(=O)[C@@H](NC(=O)[C@H](CCC(N)=O)NC(=O)[C@H](CO)NC(C)=O)CSSC[C@@H](C(=O)O)NC(=O)[C@H]([C@@H](C)O)NC(=O)[C@@H]2CCCN2C1=O` [SEQ ID NO: 111] (Ac-SQCPMDIPTC-OH; disulfide 3-10) it is 1.7 µM; for `CC(C)C[C@@H]1NC(=O)[C@@H]2CCCN2C(=O)[C@@H]2CSCc3cc(cc(c3)OCCCCCCON=CC(=O)N[C@@H](CCCCN)C(=O)N2)CSC[C@@H](C(=O)O)NC(=O)[C@H](CCC(=O)O)NC(=O)[C@H]([C@@H](C)O)NC(=O)[C@@H]2CCCN2C(=O)[C@H]([C@@H](C)O)NC(=O)[C@H](CC(=O)O)NC1=O` [SEQ ID NO: 121] (KCPLDTPTEC-OH; linker N-2-10 via X1) it is 0.748 µM.

The values above are taken from patent publication US20230145835A1, “Modulators of Alpha-4-beta-7 Integrin and MAdCAM” (48HD Biopharma Inc., priority 2021, published 2023).
